In paper PMC3113660 (Journal of medicinal chemistry, 2010):

Tests used:
[1] = test system: L6 rat myoblast cells; experiment: In vitro cytotoxicity assay; type: cell-based; conditions: L6 cells; relative to 5,5′-disubstituted analogue 1
[2] = test system: T. brucei rhodesiense STIB900; type: in vivo, mice; conditions: 4 × 5 mg/kg ip; number of mice that survive and are parasite free for 60 days
[3] = test system: Leishmania donovani (MHOM/SD/62/1S-CL2D) axenic amastigotes; experiment: Antileishmanial assay; type: cell-based; conditions: in vitro, axenic amastigotes
[4] = test system: Plasmodium falciparum (K1, resistant to chloroquine); experiment: In vitro growth inhibition assay of P. falciparum; type: cell-based
[5] = test system: P. berghei; experiment: P. berghei mouse model; type: in vivo; conditions: subcutaneously at 30 mg/kg daily for four days; data not shown
[6] = test system: P. berghei; conditions: mice; cited from earlier work

## Cl.Cl.N=C(N)c1ccc(-n2cc(-c3cccc(C(=N)N)c3)nn2)cc1 [Compound 16, 1-(4-Amidinophenyl)-4-(3-amidinophenyl)-1H-1,2,3-triazole Dihydrochloride]
[1]
  fold increased cytotoxicity: ~25 fold
[2]
  cures: curing one out of four mice
[3]
  activity against L. donovani (in words): active

## Cl.Cl.Oc1cc(C2=NCCN2)ccc1-c1cn(-c2ccc(C3=NCCN3)cc2)nn1 [Compound 60, 4-[4-(4,5-Dihydro-1H-imidazol-2-yl)-2-hydroxyphenyl]-1-[4-(4,5-dihydro-1H-imidazol-2-yl)phenyl]-1H-1,2,3-triazole Dihydrochloride]
[4]; relative to diimidazoline 48
  times as active against P. falciparum: 3 times
[4]; relative to pentamidine
  times greater antiplasmodial selectivity index SIP: ~400 times
[5]
  effect on blood parasite count: did not reduce the blood parasite count

## N=C(N)c1ccc(-c2ccc(-c3ccc(C(=N)N)cc3)o2)cc1 [furamidine, 2,5-bis(4-amidinophenyl)furan]
[6]
  activity against trophozoite-induced P. berghei infection: inactive
